Data published in ChEMBL document CHEMBL1201862, “PubChem BioAssay data set” (2004).
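Tested at 5 concentrations; 48 h exposure; 96-well plates; endpoints linearly interpolated, else capped at highest concentration. At the GI50, growth is halved.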 Activity calls are given as the source filed them. Cut-off read from the data, not from the text of the source: active = GI50 up to about 1.1 µM and inactive = higher.

Legend:
Test in all cases: growth of human tumour cells (NCI), 48 h
A498 = test system: A498
ACHN = test system: ACHN
CAKI-1 = test system: CAKI-1
CCRF-CEM = test system: CCRF-CEM
HCT-116 = test system: HCT-116
HCT-15 = test system: HCT-15
HOP-62 = test system: HOP-62
IGROV-1 = test system: IGROV-1
K562 = test system: K562
M14 = test system: M14
MOLT-4 = test system: MOLT-4
NCI-H23 = test system: NCI-H23
RXF 393 = test system: RXF 393
SF-268 = test system: SF-268
SF-539 = test system: SF-539
SK-MEL-5 = test system: SK-MEL-5
SK-OV-3 = test system: SK-OV-3
SN12C = test system: SN12C
TK-10 = test system: TK-10
UACC-257 = test system: UACC-257

Measured: GI50

CCC(=C/[C@H](C)C/C=C/C(C)=C/[C@@H](C)C(=O)[C@@H](C)[C@H](O)[C@@H](C)CC)/C=C/[C@H]1CC=CC(=O)O1 [CALLYSTATIN A]
active: A498 < 0.0012 µM | ACHN < 0.0012 µM | CAKI-1 < 0.0012 µM | CCRF-CEM < 0.0012 µM | HCT-116 < 0.0012 µM | HOP-62 < 0.0012 µM | IGROV-1 < 0.0012 µM | K562 < 0.0012 µM | M14 < 0.0012 µM | MOLT-4 0.0887 µM | NCI-H23 < 0.0012 µM | RXF 393 < 0.0012 µM | SF-268 < 0.0012 µM | SF-539 < 0.0012 µM | SK-MEL-5 < 0.0012 µM | SK-OV-3 < 0.0012 µM | SN12C < 0.0012 µM | TK-10 < 0.0012 µM | UACC-257 < 0.0012 µM
< 0.0012 µM: HCT-15

COc1ccc2c(C)cc(N/N=C(\C)C=O)nc2c1
3.78 µM: HCT-15
inactive: A498 14.5 µM | ACHN 15.6 µM | CAKI-1 14.4 µM | CCRF-CEM 1.82 µM | HCT-116 11 µM | HOP-62 8.79 µM | IGROV-1 16.5 µM | K562 2.47 µM | M14 13.6 µM | MOLT-4 4.51 µM | NCI-H23 11.8 µM | RXF 393 10.6 µM | SF-268 13.8 µM | SF-539 6.25 µM | SK-MEL-5 12.7 µM | SK-OV-3 11.2 µM | SN12C 11.2 µM | TK-10 15.7 µM | UACC-257 15.8 µM

O=Nn1c2ccccc2c2cc([N+](=O)[O-])ccc21
inactive: A498 12.4 µM | ACHN 14.1 µM | CAKI-1 16.4 µM | CCRF-CEM 14.3 µM | HCT-116 13.9 µM | HOP-62 12.3 µM | IGROV-1 15.7 µM | K562 11.1 µM | M14 20 µM | MOLT-4 14.1 µM | NCI-H23 17.3 µM | RXF 393 16.4 µM | SF-268 12.7 µM | SF-539 20.3 µM | SK-MEL-5 30.5 µM | SK-OV-3 16.1 µM | SN12C 16.8 µM | TK-10 15.4 µM | UACC-257 22.9 µM
22.3 µM: HCT-15

N/C(=N\O)N/N=C\c1ccc(O)c(O)c1O
19.2 µM: HCT-15
inactive: A498 > 30.8 µM | CAKI-1 29.4 µM | CCRF-CEM 17.3 µM | HCT-116 27.5 µM | HOP-62 > 41.1 µM | IGROV-1 57 µM | K562 17.8 µM | MOLT-4 24.9 µM | NCI-H23 24.4 µM | RXF 393 18.9 µM | SF-268 60.1 µM | SF-539 > 100 µM | SK-MEL-5 19.8 µM | SK-OV-3 > 100 µM | SN12C 19.5 µM | UACC-257 63.7 µM

CCOC(=O)C1=C(C)NC(=O)N([N+](=O)[O-])C1c1ccccc1C(F)(F)F (stereo not given)
inactive: A498 > 100 µM | ACHN > 100 µM | CAKI-1 23.1 µM | CCRF-CEM 26.6 µM | HCT-116 35.7 µM | HOP-62 70.6 µM | IGROV-1 > 100 µM | K562 72.6 µM | M14 43.5 µM | MOLT-4 > 100 µM | NCI-H23 > 100 µM | RXF 393 61 µM | SF-268 53.1 µM | SF-539 28 µM | SK-MEL-5 42.3 µM | SK-OV-3 > 100 µM | SN12C > 100 µM | TK-10 98.2 µM | UACC-257 > 100 µM
55.2 µM: HCT-15

CC1(C)N=C(c2ccccc2)SC12S[C@@H]1CCCC[C@H]1S2
inactive: A498 17.9 µM | ACHN > 100 µM | CAKI-1 > 100 µM | CCRF-CEM > 100 µM | HCT-116 > 100 µM | HOP-62 > 100 µM | IGROV-1 > 100 µM | K562 > 100 µM | M14 > 100 µM | MOLT-4 63.8 µM | NCI-H23 14.7 µM | RXF 393 > 100 µM | SF-268 > 100 µM | SF-539 > 100 µM | SK-MEL-5 17.4 µM | SK-OV-3 > 100 µM | SN12C > 100 µM | TK-10 > 100 µM | UACC-257 41.5 µM
> 100 µM: HCT-15

COC(=O)C(C)NP(=O)(N1CC1)N1CC1 (stereo not given)
> 100 µM: HCT-15
inactive: A498 > 100 µM | ACHN 27.9 µM | CAKI-1 > 100 µM | CCRF-CEM 47.6 µM | IGROV-1 > 100 µM | K562 > 100 µM | M14 83 µM | MOLT-4 40.3 µM | NCI-H23 97.3 µM | RXF 393 > 100 µM | SF-268 > 100 µM | SF-539 > 100 µM | SK-MEL-5 > 100 µM | SK-OV-3 > 100 µM | SN12C 73.6 µM | TK-10 > 100 µM | UACC-257 > 100 µM
